Results reported in patent US8883758B2, “3,5-disubstituted and 3,5,7-trisubstituted-3H-oxazolo and 3H-thiazolo[4,5-d]pyrimidin-2-one compounds and prodrugs thereof” (Anadys Pharmaceuticals, Inc., priority 2004, dated 2014).

System: human PBMCs
Assay: IFN-α induction from peripheral blood mononuclear cells (PBMC), IFN-α ELISA
Type: cell-based
Conditions: for Emax: Homo sapiens, PBMC, percentage of the level of IFN-α induction by either 32 or 100 μM isatoribine, 24 hours compound exposure, read-out: IFN-α induction from PBMCs relative to isatoribine; for Difference in amount of IFN-α produced compared with isatoribine: 100 μM test agent
Protocol: Peripheral blood mononuclear cells (PBMCs) are prepared by standard methods from human blood and are primarily comprised of monocytes, NK cells, circulating dendritic cells and both T and B cells. Briefly, they are purified by density gradient centrifugation from a buffy coat, which is the component of whole blood that contains leukocytes and platelets. In turn, buffy coats are prepared by centrifuging whole blood and isolating the thin cream colored layer between the upper plasma layer and the lower red blood cell portion of the separated mixture.
Freshly collected donor buffy coats were obtained from the San Diego Blood Bank. PBMCs were isolated from the buffy coats using histopaque-1077 gradient (Sigma), essentially as described in the manufacturer's protocol. Buffy coats were transferred into 50 ml centrifuge tubes and PBS added to a total volume of 35 ml. Next 10 ml histopaque-1077 was underlayed at the bottom of each tube, which were then centrifuged at 259×g for 30 minutes at room temperature without brake in a 5804 R centrifuge (Eppendorf). The top PBS level from each tube was removed and discarded and the buffy coat layer transferred to a fresh tube. The total volume was made up to 50 ml with PBS and the tubes were then centrifuged for 10 minutes at 259×g at room temperature. The cells were washed an additional 3 times with PBS in this manner.
The cell (PBMC) pellet was then resuspended in 30-40 ml complete (RPMI 1640) media. PBMCs were seeded at either 2.5 or 7.5×10^6 cells/ml complete media (1× and 3× seedings, respectively) and allowed to rest overnight before compound exposure for 24 hours. The cells and media were then collected, centrifuged for 5 minutes at 735×g in a 5415 C microfuge (Eppendorf) at room temperature and the supernatant analyzed by IFN-α ELISA. […] Hereby incorporated by reference in their entireties are U.S. Pat. Nos. 5,041,426 and 4,880,784, and U.S. patent application Ser. No. 10/861,430 (U.S. Patent Application Publication No. US 2005/0070556), which disclose, inter alia, IFN-α induction of isatoribine.
Accordingly, relative activities of the compounds of the invention are expressed as a percentage of the level of IFN-α induction by either 32 or 100 μM isatoribine.
Human IFN-α ELISA (#KHC4012) was performed as described in Biosource protocol. However, to ensure that readings were within the linear range of detection, PBMC supernatant samples were typically diluted 1:3 (2.5×10^6 cells/ml seeding) or 1:15 (7.5×10^6 cells/ml seeding) and then analyzed together with undiluted supernatant samples. The concentration in each sample was calculated from the O.D. by reference to a standard curve.

[1] = 1× PBMC seeding, 100 μM test compound

SMILES	Emax [%]	also measured
CC(=O)OC[C@H]1O[C@@H](n2c(=S)sc3c(=O)[nH]c(N)nc32)[C@H](OC(C)=O)[C@@H]1OC(C)=O [Compound 32, 5-amino-2,3-dihydro-2-thioxo-3-(2′,3′,5′-tri-O-acetyl-β-D-ribofuranosyl)thiazolo[4,5-d]pyrimidin-7-(6H)-one]	51 to 100	
Nc1nc2c(sc(=S)n2[C@@H]2O[C@H](CO)[C@@H](O)[C@H]2O)c(=O)[nH]1 [Compound 33, 5-amino-2,3-dihydro-2-thioxo-3-β-D-ribofuranosyl-thiazolo[4,5-d]pyrimidin-7(6H)-one]	0 to 10	
CC(=O)OC[C@H]1O[C@@H](n2c(=S)sc3c(=O)[nH]c(N)nc32)[C@H](OC(C)=O)[C@H]1OC(C)=O [Compound 34, 5-amino-2,3-dihydro-2-thioxo-3-(2′,3′,5′-tri-O-acetyl-β-D-xylofuranosyl)thiazolo[4,5-d]pyrimidin-7-(6H)-one]	> 100	
C[C@@]1(O)[C@@H](CO)O[C@@H](n2c(=O)sc3c(=O)[nH]c(N)nc32)[C@@H]1O [Compound 117, 5-Amino-3-(3′-C-methyl-β-D-ribofuranosyl)thiazolo[4,5-d]pyrimidine-2,7(3H,6H)-dione]	> 100	
CC(=O)OC[C@@H]1C[C@@H](OC(C)=O)[C@H](n2c(=O)sc3c(=O)[nH]c(N)nc32)O1 [Compound 121, 5-Amino-3-(2′,5′-di-O-acetyl-3′-deoxy-β-D-ribofuranosyl)-3H,6H-thiazolo[4,5-d]pyrimidine-2,7-dione]	> 100	
Nc1nc2c(sc(=O)n2[C@@H]2O[C@H](CO)C[C@H]2O)c(=O)[nH]1 [Compound 122, 5-Amino-3-(3′-deoxy-β-D-ribofuranosyl)-3H,6H-thiazolo[4,5-d]pyrimidine-2,7-dione]	> 100	IFN-α production compared with isatoribine [1]: significantly and substantially more IFN-α production; IFN-α production compared with isatoribine (3× PBMC seeding, 32 μM): dramatically and unexpectedly outperform isatoribine; Difference in amount of IFN-α produced compared with isatoribine (3× PBMC seeding): less clear-cut although visually apparent and statistically significant
Nc1nc2c(sc(=O)n2[C@H]2C[C@H](O)[C@@H](CO)O2)c(=O)[nH]1 [Compound 130, 5-Amino-3-(2′-deoxy-β-D-ribofuranosyl)-3H,6H-thiazolo[4,5-d]pyrimidine-2,7-dione]	51 to 100	
C=C1[C@@H](O)[C@H](n2c(=O)sc3c(=O)[nH]c(N)nc32)O[C@@H]1CO [Compound 132, 5-Amino-3-(3′-deoxy-3′-methylidene-β-D-ribofuranosyl)-3H,6H-thiazolo[4,5-d]pyrimidine-2,7-dione]	> 100	
CC(=O)OC[C@H]1O[C@@H](n2c(=O)sc3c(=O)[nH]c(N)nc32)[C@H](OC(C)=O)[C@H]1OC(C)=O [Compound 133, 5-Amino-3-(2′,3′,5′-tri-O-acetyl-β-D-xylofuranosyl)-3H,6H-thiazolo[4,5-d]pyrimidin-2-one]	> 100	
Nc1nc2c(sc(=O)n2[C@@H]2O[C@H](CO)[C@H](O)[C@H]2O)c(=O)[nH]1 [Compound 134]	> 100	IFN-α production compared with isatoribine [1]: significantly and substantially more IFN-α production; IFN-α production compared with isatoribine (3× PBMC seeding, 32 μM): dramatically and unexpectedly outperform isatoribine; Difference in amount of IFN-α produced compared with isatoribine (3× PBMC seeding): less clear-cut although visually apparent and statistically significant
CO[C@@H]1[C@@H](O)[C@H](n2c(=O)sc3c(=O)[nH]c(N)nc32)O[C@@H]1CO [Compound 137, 5-Amino-3-(3′-(R)-Methoxy-β-D-xylofuranosyl)-3H,6H-thiazolo[4,5-d]pyrimidin-2-one]	51 to 100	
C[C@]1(O)[C@@H](CO)O[C@@H](n2c(=O)sc3c(=O)[nH]c(N)nc32)[C@@H]1O [Compound 141, 5-Amino-3-(3′-(S)-methyl, 2′,3′,5′-tri-hydroxy-β-D-xylofuranosyl)-3H,6H-thiazolo[4,5-d]pyrimidin-2-one]	0 to 10	
CC(=O)OCC(OC(C)=O)[C@H]1O[C@@H](n2c(=O)sc3c(=O)[nH]c(N)nc32)[C@H](OC(C)=O)[C@H]1OC(C)=O (stereo partly drawn) [Compound 142, 5-Amino-3-(5′-(1,2-diacetoxy-ethyl), 2′,3′-di-O-acetyl-β-D-glucofuranosyl)-3H,6H-thiazolo[4,5-d]pyrimidin-2-one]	0 to 10	
CC(=O)OC[C@H]1[C@@H](OC(C)=O)[C@H](n2c(=O)sc3c(=O)[nH]c(N)nc32)O[C@@H]1COC(C)=O [Compound 147, (3′S)-5-Amino-3-(3′-acetoxymethyl-2′,5′-di-O-acetyl-3′-deoxy-β-D-ribofuranosyl)-3H,6H-thiazolo[4,5-d]pyrimidin-2,7-dione]	> 100	
Nc1nc2c(sc(=O)n2[C@@H]2O[C@H](CO)[C@@H](CO)[C@H]2O)c(=O)[nH]1 [Compound 148, (3′S)-5-Amino-3-(3′-deoxy-3′-hydroxymethyl-β-D-ribofuranosyl)-3H,6H-thiazolo[4,5-d]pyrimidin-2,7-dione]	0 to 10	
CC(=O)O[C@@H]1[C@@H](F)[C@@H](COC(=O)c2ccccc2)O[C@H]1n1c(=O)sc2c(=O)[nH]c(N)nc21 [Compound 152, (3′R)-5-Amino-3-(2′-O-acetyl-5′-O-benzoyl-3′-deoxy-3′-fluoro-β-D-xylofuranosyl)-3H,6H-thiazolo[4,5-d]pyrimidin-2,7-dione]	11 to 50	
Nc1nc2c(sc(=O)n2[C@@H]2O[C@H](CO)[C@H](F)[C@H]2O)c(=O)[nH]1 [Compound 153, (3′R)-5-Amino-3-(3′-deoxy-3′-fluoro-β-D-xylofuranosyl)-3H,6H-thiazolo[4,5-d]pyrimidin-2,7-dione]	> 100	
CCCCCCn1c(=O)sc2c(=O)[nH]c(N)nc21 [Compound 157, 5-Amino-3-hexyl-3H,6H-thiazolo[4,5-d]pyrimidine-2,7-dione]	0 to 10	
Nc1nc2c(sc(=O)n2[C@H]2CC[C@@H](CO)O2)c(=O)[nH]1 [Compound 165, 5-Amino-3-(2′,3′-dideoxy-β-D-ribofuranosyl)-3H,6H-thiazolo[4,5-d]pyrimidine-2,7-dione]	11 to 50	
